Measurements reported in patent EP0606463B1, “NEUROMEDIN B RECEPTOR ANTAGONISTS” (The Administrators of The Tulane Educational Fund, priority 1992, dated 1994).
Where a SMILES comes first, the peptide text is derived from it. Bridges are numbered along the chain shown (N, C = ends). Where no end group is shown, it is not given here. [ ]: non-standard residue; d: D form. 2Nal = N[C@@H](Cc1ccc2ccccc2c1)C(=O)O; d2Nal = N[C@H](Cc1ccc2ccccc2c1)C(=O)O; Lys(Et2) = CCN(CC)CCCC[C@H](N)C(=O)O

Key:
[1] = system: endothelin-1-simulated increases in [^3H]IP; test: Endothelin-1-stimulated [3H]IP in C-6 glioblastoma cells; format: cell-based, rat
Method: (§1) Total phosphoinositides in C-6 cells and in NMB-R transfected cells were determined as described previously, with minor modifications [Benya, R. V. et al. Mol. Pharmacol. 42:1058 (1992); and Wang, L-H. et al. Biochem. J. 286:641 (1992)]. Cells were grown to confluence in 24-well plates and then loaded with 100 µCi/ml myo-[2-^3H]inositol in Dulbecco's modified essential medium with 2% fetal bovine serum at 37°C for 48 hrs. Cells were washed and incubated in phosphoinositide buffer (standard buffer additionally containing 10 mM LiCl, 20 mM HEPES, 2 mM CaCl2, 2% BSA, and 1.2 mM MgSO4) for 15 min and then for 60 min at 37°C with agonists at various concentrations or with 3 nM NMB (a half-maximal effective concentration) and possible antagonists at different concentrations. Reactions were halted using ice-cold 1% HCl in methanol, and the inositol phosphates (IP) were isolated as described previously [Bologna, M. et al. Cancer 63:1714 (1989); and Endo, T. et al. J. Endocrinol. 131:313 (1991)]. Briefly, after loading of the anion exchange column, free [^3H]glycerophosphorylinositol was removed by washing with 5 mM disodium tetraborate in 60 mM sodium formate. Total [^3H]inositol phosphates were then eluted using 100 mM formic acid in 1.0 M ammonium formate as described previously [Benya, R. V. et al. Mol. Pharmacol. 42:1058 (1992); and Wang, L-H. et al. Biochem. J. 286:641 (1992)].

[2] = molecular target: T1, NMB receptors on C-6 glioblastoma cells (Rattus norvegicus, UniProt P24053); test: NMB-stimulated [3H]IP in C-6 glioblastoma cells; format: cell-based
T1 construct: endogenous in cells; host or cells: rat glioblastoma C-6 cells
T1 sequence (P24053 1-390): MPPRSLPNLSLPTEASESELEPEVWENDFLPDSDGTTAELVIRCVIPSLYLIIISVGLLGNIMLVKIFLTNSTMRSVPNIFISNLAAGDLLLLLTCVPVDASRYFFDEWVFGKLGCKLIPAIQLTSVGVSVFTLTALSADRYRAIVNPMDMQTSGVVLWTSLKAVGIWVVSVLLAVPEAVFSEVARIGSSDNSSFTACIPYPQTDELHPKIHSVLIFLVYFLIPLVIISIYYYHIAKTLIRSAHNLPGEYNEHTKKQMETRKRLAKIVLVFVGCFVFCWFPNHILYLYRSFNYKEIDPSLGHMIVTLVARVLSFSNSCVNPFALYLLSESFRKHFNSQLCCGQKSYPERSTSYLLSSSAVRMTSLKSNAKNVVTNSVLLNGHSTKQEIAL
Method: as §1, with “for 60 min at 37°C with agonists at various concentrations or with 3 nM NMB (a half-maximal effective concentration) and possible antagonists at different concentrations.” left out

rat NMB receptor = molecular target: T2, rat NMB receptor (Rattus norvegicus, UniProt P24053); test: Binding of 125I-[D-Tyr0]NMB to NMB-R transfected BALB 3T3 cells; conditions: for fold by which cyclo SS-octa was more potent than the analog: inhibition of ^125I-[Tyr^0]NMB binding to NMB-R transfected cells; for decrease in NMB receptor affinity compared with #1: structure-function comparison of Table 1 values
T2 construct: a full length NMB-preferring bombesin receptor clone generated from rat esophagus; expressed in transfected cells; host or cells: BALB 3T3 cells
T2 sequence (P24053 1-390): T1 sequence (P24053 1-390)
Method: (§2) Cells were passaged every 3-4 days at confluence, using 0.1% trypsin in 1 mM EDTA. Rat glioblastoma C-6 tumor cells were maintained similarly and were passaged weekly at confluence. Both cell lines were cultured at 37°C in a 5% CO2 atmosphere. Rat AR 42J pancreatic acinar cells were cultured in Dulbecco's modified Eagle's medium (DMEM) without antibiotics and supplemented with 10% (vol/vol) fetal calf serum. The incubation atmosphere consisted of 10% CO2-90% humidified air at 37°C.

GRP Receptor = molecular target: T3, GRP Receptor (Rattus norvegicus, UniProt P52500); test: Amylase release from rat pancreatic acini; format: cell-based; conditions: for Rat Pancreatic Acini Amylase Release Alone (10µM): analog 10 µM alone, no-additive control 4 ± 1; for Rat Pancreatic Acini Amylase Release Plus Bn(0.3 nM): analog 10 µM plus Bn 0.3 nM, Bn without analog 15 ± 1
T3 construct: from tissue; host or cells: dispersed pancreatic acini

NMB Receptor = molecular target: T4, NMB Receptor (Rattus norvegicus, UniProt P24053); test: [3H]inositol phosphates (IP) in NMB-R transfected cells; format: cell-based; conditions: for NMB-R Transfected Cells [^3H]IP Alone (10 µ M): analog 10 µM alone, no-additive control 13 ± 3; for NMB-R Transfected Cells [^3H]IP Plus NMB (3 nM): analog 10 µM plus NMB 3 nM, NMB without analog 186 ± 58; for effect on NMB-stimulated increase in [^3H]IP: NMB-R transfected cells, 3 nM NMB, peptide 10 µM
T4 construct: a full length NMB-preferring bombesin receptor clone generated from rat esophagus; expressed in transfected cells; host or cells: BALB 3T3 cells
T4 sequence (P24053 1-390): T1 sequence (P24053 1-390)
Method: as §2, with “As described previously [Wada, E., et al. Neuron 6:421 (1991)], BALB 3T3 cells expressing a stably transfected rat NMB receptor (NMB-R transfected cells) were obtained using calcium phosphate precipitation of a full length NMB-preferring bombesin receptor clone generated from rat esophagus and subcloned into a modified version of the pCD2 plasmid. Cells” for “Cells”
as §1

[3] = molecular target: T5, NMB receptors on rat olfactory bulb membranes (Rattus norvegicus, UniProt P24053); test: NMB membrane receptor assay (rat olfactory bulb membranes); format: binding
T5 construct: Membranes were prepared from rat olfactory bulb (NMB membrane receptor assay); from tissue; host or cells: rat olfactory bulb membranes
T5 sequence (P24053 1-390): T1 sequence (P24053 1-390)

T3 sequence (P52500 whole entry): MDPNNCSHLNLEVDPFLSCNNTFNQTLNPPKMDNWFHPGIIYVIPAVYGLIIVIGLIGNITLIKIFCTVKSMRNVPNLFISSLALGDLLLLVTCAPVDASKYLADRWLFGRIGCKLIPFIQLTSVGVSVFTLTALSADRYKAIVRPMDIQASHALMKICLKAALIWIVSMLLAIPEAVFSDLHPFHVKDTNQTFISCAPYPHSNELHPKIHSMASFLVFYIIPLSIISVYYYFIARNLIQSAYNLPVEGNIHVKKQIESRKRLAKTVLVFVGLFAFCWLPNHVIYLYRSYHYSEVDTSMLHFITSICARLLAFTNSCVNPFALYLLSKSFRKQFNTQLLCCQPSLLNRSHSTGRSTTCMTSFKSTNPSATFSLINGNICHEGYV

Compound	[^3H]IP, Peptide Added ET-1 (0.1 nM) ([1]; C-6 glioblastoma cells, analog 10 µM plus ET-1 0.1 nM) [dpm x 10^3]	effect on endothelin-1-simulated increases in [^3H]IP in C-6 cells ([1]; Table 3)	[^3H]IP, Peptide Added NMB (10 nM) ([2]; C-6 glioblastoma cells, analog 10 µM plus NMB 10 nM) [dpm x 10^3]	[^3H]IP, Peptide Added None ([2]; C-6 glioblastoma cells, analog 10 µM, no agonist, control 7.2±1.0) [dpm x 10^3]	effect on NMB-stimulated increases in [^3H]IP in C-6 glioblastoma cells ([2]; Table 3)	fold by which cyclo SS-octa was more potent than the analog (rat NMB receptor) [fold]	decrease in NMB receptor affinity compared with #1 (rat NMB receptor)	Rat Pancreatic Acini Amylase Release Alone (10µM) (GRP Receptor) [% total]	Rat Pancreatic Acini Amylase Release Plus Bn(0.3 nM) (GRP Receptor) [% total]	NMB-R Transfected Cells [^3H]IP Alone (10 µ M) (NMB Receptor) [dpm x 10^3]	NMB-R Transfected Cells [^3H]IP Plus NMB (3 nM) (NMB Receptor) [dpm x 10^3]	fold greater affinity for NMB receptors than mu opioid receptors ([3]; rat olfactory bulb versus rat forebrain membranes (Table 4)) [fold]	effect on NMB-stimulated increase in [^3H]IP (NMB Receptor)	fold higher affinity for NMB receptors than somatostatin receptors ([3]; rat olfactory bulb versus AR 42J membranes (Table 4)) [fold]	fold greater affinity for the NMB than the GRP receptors (rat NMB receptor; NMB-R transfected cells versus GRP receptors on rat pancreatic acini) [fold]	[^3H]IP, ET-1 (0.1 nM) Alone ([1]; C-6 glioblastoma cells, agonist without analog, basal 7.2±1.0) [dpm x 10^3]
C[C@@H](O)[C@H](NC(=O)[C@@H]1CSSC[C@H](NC(=O)[C@H](N)Cc2ccc3ccccc3c2)C(=O)N[C@@H](Cc2ccc(O)cc2)C(=O)N[C@H](Cc2c[nH]c3ccccc23)C(=O)N[C@@H](CCCCN)C(=O)N[C@@H](Cc2ccc3ccccc3c2)C(=O)N1)C(N)=O [Analog #2, [Nal^6,Thr^8]-cyclo SS-octa]	11.2±1.9	had no effect	14.3 ± 4.2	7.3±1.2	inhibited	4	4 fold	5 ± 1	13 ± 1	11 ± 2	39 ± 7	–	–	–	–	–
CC(C)[C@@H]1NC(=O)[C@H](CCCCN)NC(=O)[C@@H](Cc2c[nH]c3ccccc23)NC(=O)[C@H](Cc2ccc(O)cc2)NC(=O)[C@@H](NC(=O)[C@H](N)Cc2ccc3ccccc3c2)CSSC[C@H](C(=O)N[C@@H](Cc2ccc3ccccc3c2)C(N)=O)NC1=O [Analog #11, [D-Cys^7]-cyclo SS-octa] (H-[d2Nal]CY[dW]KV[dC][2Nal]-NH2; disulfide 2-7; N-terminus assumed)	–	–	–	–	–	6	5 fold	2 ± 1	14 ± 1	10 ± 1	7 ± 4	> 50	completely inhibited	–	–	–
CC(C)[C@@H]1NC(=O)[C@H](Cc2c[nH]cn2)NC(=O)[C@@H](Cc2c[nH]c3ccccc23)NC(=O)[C@H](Cc2ccc(O)cc2)NC(=O)[C@@H](NC(=O)[C@H](N)Cc2ccc3ccccc3c2)CSSC[C@@H](C(=O)N[C@@H](Cc2ccc3ccccc3c2)C(N)=O)NC1=O [Analog #14, [His^5]-cyclo SS-octa] (H-[d2Nal]CY[dW]HVC[2Nal]-NH2; disulfide 2-7; N-terminus assumed)	–	–	–	–	–	45	50 fold	2 ± 1	13 ± 1	8 ± 1	97 ± 7	–	–	3	–	–
CCN(CC)CCCC[C@@H]1NC(=O)[C@@H](Cc2c[nH]c3ccccc23)NC(=O)[C@H](Cc2ccc(O)cc2)NC(=O)[C@@H](NC(=O)[C@H](N)Cc2ccccc2)CSSC[C@@H](C(=O)N[C@@H](Cc2ccc3ccccc3c2)C(N)=O)NC(=O)[C@H]([C@@H](C)O)NC1=O [Analog #16, [D-Phe^1, Lys(diEt)^5, Thr^6] cyclo SS-octa] (H-[dF]CY[dW][Lys(Et2)]TC[2Nal]-NH2; disulfide 2-7; N-terminus assumed)	–	–	–	–	–	18	–	5 ± 1	12 ± 1	11 ± 2	73 ± 15	–	–	–	–	–
CC(C)[C@@H]1NC(=O)[C@H](CCCCN)NC(=O)[C@@H](Cc2ccc3ccccc3c2)NC(=O)[C@H](Cc2ccc(O)cc2)NC(=O)[C@@H](NC(=O)[C@H](N)Cc2ccc3ccccc3c2)CSSC[C@@H](C(=O)N[C@@H](Cc2ccc3ccccc3c2)C(N)=O)NC1=O [Analog #17, [D-Nal^4]-cyclo SS-octa] (H-[d2Nal]CY[d2Nal]KVC[2Nal]-NH2; disulfide 2-7; N-terminus assumed)	–	–	–	–	–	2	almost no effect on affinity	4 ± 2	19 ± 1	12 ± 4	15 ± 2	–	completely inhibited	–	> 100	–
endothelin 1 (CSCSSLMDKECVYFCHLDIIW; disulfide 1-15, 3-11; ends not checked; UniProt P05305 53-73, looked up) [ET-1, agonist from Peninsula Laboratories, reference compound]	–	–	–	–	–	–	–	–	–	–	–	–	–	–	–	11.0±2.1
